Experimental findings from patent publication US5891851A, “Antibiotic, feglymycin, processes for its preparation and its use” (Hoechst Aktiengesellschaft, priority 1996, dated 1999) are described below.

For data set [1], the system named is human immunodeficiency viruses. Format: cell-based, human immunodeficiency virus. How it is done:
The IC50 is less than 7 μg per ml. The inhibitory activity can be measured by light-microscopic observation of HIV-typical syncytia. In this connection, the reduction in syncytia formation is a measure of the activity of the agent, in this case of feglymycin. It is also possible, however, to determine the activity of feglymycin by measuring the amount of HIV particles in cell culture supernatants, e.g. by means of commercially available p24 antigen tests.

The format of data set [2] is physicochemical. An excerpt:
Stable in neutral and mildly alkaline medium, but unstable in strongly acidic or strongly alkaline solutions.

The format of data set [3] is cell-based. The source says: The tolerability of feglymycin in both the active concentration and even in higher concetrations is good. Cytotoxic effects or other toxicities were not observed.

*1 amine or outer side, *2 acyl side, *3 side chain or, on linkers, in order; H or OH if unused. Where a SMILES comes first, the peptide text is derived from it. [ ]: non-standard residue; d: D form. X1 = O=C(C(N[*:1])c1cc(O)cc(O)c1)[*:2]; Hpg = N[CH](C(=O)O)c1ccc(O)cc1

`CC(C)C(NC(=O)C(NC(=O)C(N)c1ccc(O)cc1)c1cc(O)cc(O)c1)C(=O)NC(C(=O)NC(C(=O)NC(C(=O)NC(C(=O)NC(C(=O)NC(C(=O)NC(C(=O)NC(C(=O)NC(Cc1ccccc1)C(=O)NC(CC(=O)O)C(=O)O)c1ccc(O)cc1)c1cc(O)cc(O)c1)C(C)C)c1cc(O)cc(O)c1)c1ccc(O)cc1)c1cc(O)cc(O)c1)c1ccc(O)cc1)c1cc(O)cc(O)c1` (stereo not drawn) [feglymycin] (H-[Hpg][X1]V[X1][Hpg][X1][Hpg][X1]V[X1][Hpg]FD-OH; configuration not given here): in data set [1], the “IC50, inhibitory activity on human immunodeficiency viruses” value is “less than 7 μg per ml”. Moreover, the Solubility entry in data set [2] is “soluble in methanol, acetonitrile and water”. Moreover, the “Cytotoxic effects or other toxicities” value in data set [3] is on record as “not observed”.
